The record followed here is ChEMBL document CHEMBL2303647, “Data associated with the publication PLoS ONE, 8(3), e57888, (2013) PMID: 23505445. Compounds: GSK PKIS; Assays: NIH NCATS”.

The target of experiment [1] is T1, Coelenterazine h 2-monooxygenase (Renilla reniformis, UniProt P27652).
T1 sequence (P27652 whole entry): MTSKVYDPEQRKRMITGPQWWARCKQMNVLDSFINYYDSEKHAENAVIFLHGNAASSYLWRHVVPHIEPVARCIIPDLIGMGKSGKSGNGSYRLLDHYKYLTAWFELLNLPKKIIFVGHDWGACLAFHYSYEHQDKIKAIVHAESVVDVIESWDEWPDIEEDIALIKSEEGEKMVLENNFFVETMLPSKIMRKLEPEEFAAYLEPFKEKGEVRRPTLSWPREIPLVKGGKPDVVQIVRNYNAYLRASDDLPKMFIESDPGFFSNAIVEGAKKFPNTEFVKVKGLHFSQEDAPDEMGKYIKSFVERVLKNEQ
Description: GSK_PKIS: Inhibition of Sea Pansy Luciferase (Data from PubChem: AID 652015) [NIH NCATS]

In experiment [2] the target is Luciferin 4-monooxygenase (Photinus pyralis, UniProt P08659).
Description: GSK_PKIS: Inhibition of Firefly Luciferase (Data from PubChem: AID 652016) [NIH NCATS]

“Also recorded” adds a separate entry of the source.

Luciferin 4-monooxygenase, sequence (P08659 whole entry): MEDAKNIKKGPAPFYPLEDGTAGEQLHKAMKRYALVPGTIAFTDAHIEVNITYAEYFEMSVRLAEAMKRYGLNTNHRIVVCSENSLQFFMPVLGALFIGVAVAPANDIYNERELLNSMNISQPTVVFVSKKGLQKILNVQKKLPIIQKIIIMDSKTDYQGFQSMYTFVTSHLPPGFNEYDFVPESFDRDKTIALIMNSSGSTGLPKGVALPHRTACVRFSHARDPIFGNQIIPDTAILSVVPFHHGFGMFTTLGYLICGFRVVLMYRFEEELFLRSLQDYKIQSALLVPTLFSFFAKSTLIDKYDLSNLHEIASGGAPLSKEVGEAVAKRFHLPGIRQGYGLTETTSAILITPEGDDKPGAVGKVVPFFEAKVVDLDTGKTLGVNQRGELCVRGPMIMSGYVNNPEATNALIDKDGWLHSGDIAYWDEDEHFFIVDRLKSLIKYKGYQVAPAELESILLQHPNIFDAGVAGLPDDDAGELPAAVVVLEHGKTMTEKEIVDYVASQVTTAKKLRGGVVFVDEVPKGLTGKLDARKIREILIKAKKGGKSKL

As to `O=C(Nc1n[nH]c2nc(-c3ccco3)ccc12)C1CC1`, the AC50 result in experiment [1] and in experiment [2] was “Phenotype: Inactive; Curve_Description: None” in each case.

Regarding `CS(=O)(=O)Nc1ccc(-c2ccc3c(NC(=O)C4CC4)n[nH]c3c2)cc1`, the AC50 – broadly, the midpoint of the concentration-response curve, whichever way the signal moves – in experiment [1] was “Phenotype: Inactive; Curve_Description: None”; in experiment [2] (read-out: AC50), 20.6 µM.

Turning to `CS(=O)(=O)Nc1cccc(-c2ccc3c(NC(=O)C4CC4)n[nH]c3c2)c1`, the AC50 result in experiment [1] was “Phenotype: Inactive; Curve_Description: None”; in experiment [2] (read-out: AC50), 20.6 µM.

`NS(=O)(=O)c1ccc(-c2ccc3c(NC(=O)C4CC4)n[nH]c3c2)cc1`: the AC50 entry in experiment [1] and in experiment [2] was “Phenotype: Inactive; Curve_Description: None” in each case.

Regarding `N#Cc1ccc(Oc2nccc(-c3c(-c4ccc(F)cc4)ncn3C3CCNCC3)n2)cc1`, the AC50 entry in experiment [1] and in experiment [2] was “Phenotype: Inactive; Curve_Description: None” throughout.

`O=C1NC(=O)C(c2cccc(Cl)c2)=C1Nc1ccc(Cl)c(C(=O)O)c1`: the AC50 entry in experiment [1] and in experiment [2] was “Phenotype: Inactive; Curve_Description: None” each time.

`O=C1NC(=O)C(c2ccc(Cl)cc2)=C1Nc1ccc(Cl)c(C(=O)O)c1`: the AC50 entry in experiment [1] and in experiment [2] was “Phenotype: Inactive; Curve_Description: None” in each case.

As to `O=C1NC(=O)C(c2ccccc2Cl)=C1Nc1cccc(O)c1`, the AC50 result in experiment [1] and in experiment [2] was “Phenotype: Inactive; Curve_Description: None” in each case.

`Cl.ON=C1CCc2cc(-c3nc(C4CCNCC4)[nH]c3-c3ccncc3)ccc21`: the AC50 result in experiment [1] and in experiment [2] was “Phenotype: Inactive; Curve_Description: None” each time.

With `CN(C)CCOc1ccc(-c2cc(-c3ccc4c(c3)CCC4=NO)c(-c3ccncc3)o2)cc1.Cl`, the concentration at half-maximal activity (AC50) result in experiment [1] and in experiment [2] was “Phenotype: Inactive; Curve_Description: None” throughout.

On to `CCn1c(-c2nonc2N)nc2ccncc21`, for which the AC50 entry in experiment [1] and in experiment [2] was “Phenotype: Inactive; Curve_Description: None” each time.

For the compound `CCn1c(-c2nonc2N)nc2c(N3CCCC3)nccc21`, the AC50 result in experiment [1] and in experiment [2] was “Phenotype: Inactive; Curve_Description: None” each time.

In the case of `Cn1c(-c2nonc2N)nc2cnccc21`, the AC50 entry in experiment [1] and in experiment [2] was “Phenotype: Inactive; Curve_Description: None” throughout.

Turning to `CCOc1nccc2c1nc(-c1nonc1N)n2CC`, the AC50 entry in experiment [1] and in experiment [2] was “Phenotype: Inactive; Curve_Description: None” each time.

As for `Nc1nccc(-c2c(-c3ccc(F)cc3)ncn2C2CCC(O)CC2)n1` (stereo not drawn), the AC50 entry in experiment [1] and in experiment [2] was “Phenotype: Inactive; Curve_Description: None” in each case.

Consider `Nc1nonc1-c1nc2cnccc2n1C1CCCCC1`, for which the AC50 entry in experiment [1] and in experiment [2] was “Phenotype: Inactive; Curve_Description: None” each time.

As to `N#Cc1c(NC(=O)CN2CCOCC2)sc2c1CCCC2.O=C(O)C(=O)O`, the AC50 result in experiment [1] and in experiment [2] was “Phenotype: Inactive; Curve_Description: None” each time.

Consider `O=C(Nc1n[nH]c2nnc(-c3cccnc3)cc12)C1CC1.O=C(O)C(F)(F)F`, for which the AC50 entry in experiment [1] and in experiment [2] was “Phenotype: Inactive; Curve_Description: None” throughout.

Regarding `CN1CCC(C(=O)Nc2n[nH]c3nnc(-c4ccccc4)cc23)CC1.Cl`, the AC50 result in experiment [1] and in experiment [2] was “Phenotype: Inactive; Curve_Description: None” in each case.

For the compound `CCN1CCC(C(=O)Nc2n[nH]c3nnc(-c4cccc(F)c4F)cc23)CC1.Cl`, the AC50 entry in experiment [1] and in experiment [2] was “Phenotype: Inactive; Curve_Description: None” each time.

For `CN1CCC(C(=O)Nc2n[nH]c3nc(-c4ccc(O)cc4)c(Br)cc23)CC1.O=C(O)/C=C\C(=O)O`, the AC50 result in experiment [1] and in experiment [2] was “Phenotype: Inactive; Curve_Description: None” in each case.

Take `Cl.c1ccc(-c2nc3n(c2-c2ccc4c(c2)OCO4)CCC3)nc1`: the AC50 result in experiment [1] and in experiment [2] was “Phenotype: Inactive; Curve_Description: None” in each case.

Regarding `Cl.NC(=O)c1ccc(-c2nc(-c3ccccn3)c(-c3ccc4c(c3)OCO4)[nH]2)cc1`, the AC50 entry in experiment [1] and in experiment [2] was “Phenotype: Inactive; Curve_Description: None” throughout.

For `CCn1c(-c2nonc2N)nc2cncc(C(=O)N3CC[C@H](N)C3)c21.Cl`, the AC50 entry in experiment [1] and in experiment [2] was “Phenotype: Inactive; Curve_Description: None” each time.

As for `Cl.Fc1ccc(-c2nc3n(c2-c2ccncc2)CCS3)cc1`, the AC50 entry in experiment [1] and in experiment [2] was “Phenotype: Inactive; Curve_Description: None” each time.

As to `Cl.Nc1nccc(-c2c(-c3ccc(F)cc3)ncn2C2CCNCC2)n1`, the AC50 result in experiment [1] was “Phenotype: Inactive; Curve_Description: None; also recorded: Phenotype: Activator; Curve_Description: None”; in experiment [2], “Phenotype: Inactive; Curve_Description: None”; in experiment [2] (read-out: AC50), 23.1 µM.

Turning to `Cl.NCc1ccc(-c2nc(-c3ccc(Cl)c(O)c3)c(-c3ccncc3)[nH]2)cc1`, the AC50 result in experiment [1] and in experiment [2] was “Phenotype: Inactive; Curve_Description: None” in each case.

`CN(C)CCCn1c(-c2nonc2N)nc2cnccc21`: the AC50 result in experiment [1] and in experiment [2] was “Phenotype: Inactive; Curve_Description: None” throughout.

In the case of `CCN1CCC(CC(=O)Nc2n[nH]c3nnc(-c4cccc(F)c4F)cc23)CC1.O=C(O)C(O)C(O)C(=O)O`, the AC50 result was “Phenotype: Inactive; Curve_Description: None” in experiment [1] and 41.1 µM in experiment [2] (read-out: AC50).

Regarding `COc1ccc2cc(-c3c(-c4ccncc4)nc(-c4ccc(S(C)(=O)=O)cc4C)n3C)ccc2c1`, the AC50 result in experiment [1] and in experiment [2] was “Phenotype: Inactive; Curve_Description: None” each time.

In the case of `O=C(Nc1n[nH]c2nc(-c3ccc(O)cc3)c(Br)cc12)C1CC1`, the AC50 entry was “Phenotype: Inactive; Curve_Description: None” in experiment [1] and 20.6 µM in experiment [2] (read-out: AC50).

In the case of `O=C(Nc1n[nH]c2cc(-c3cc(F)ccc3F)ccc12)C1CC1`, the results for the AC50 entry in experiment [1] and in experiment [2] (read-out: AC50) were “Phenotype: Inactive; Curve_Description: None” and 16.3 µM, respectively.

Consider `Fc1ccc(-c2c(-c3ccncc3)nc3n2CCS3)cc1`, for which the AC50 entry in experiment [1] and in experiment [2] was “Phenotype: Inactive; Curve_Description: None” each time.

Turning to `Nc1nccc(-c2c(-c3ccc(F)cc3)ncn2CCCN2CCOCC2)n1`, the AC50 entry in experiment [1] and in experiment [2] was “Phenotype: Inactive; Curve_Description: None” each time.

As for `CN1CCC(n2cnc(-c3ccc(F)cc3)c2-c2ccnc(Nc3ccccc3)n2)CC1`, the AC50 result in experiment [1] and in experiment [2] was “Phenotype: Inactive; Curve_Description: None” in each case.

Take `CN1CCC(n2cnc(-c3ccc(F)cc3)c2-c2ccnc(NCCO)n2)CC1`: the AC50 entry in experiment [1] was “Phenotype: Inactive; Curve_Description: None”; in experiment [2] (read-out: AC50), 36.6 µM.

On to `CCc1nccc2c1nc(-c1nonc1N)n2CC`, for which the AC50 result in experiment [1] and in experiment [2] was “Phenotype: Inactive; Curve_Description: None” throughout.

Turning to `N#Cc1c(NC(=O)c2ccc(F)cc2)sc2c1CCCC2`, the AC50 entry in experiment [1] is “Phenotype: Inactive; Curve_Description: None”; in experiment [2] (read-out: AC50), 0.919 µM.

Take `COc1ccc2cc(-c3c(-c4ccncc4)nc(-c4ccc([S+](C)[O-])cc4)n3C)ccc2c1` (stereo not drawn): the AC50 entry in experiment [1] was “Phenotype: Inactive; Curve_Description: None”; in experiment [2] (read-out: AC50) it was 36.6 µM.

As for `O=C(Nc1n[nH]c2cc(-c3ccccc3)ccc12)C1CC1`, the AC50 entry was “Phenotype: Inactive; Curve_Description: None” in experiment [1] and 18.3 µM in experiment [2] (read-out: AC50).

Turning to `O=C(Nc1n[nH]c2nc(-c3ccco3)c(Br)cc12)C1CC1`, the AC50 entry in experiment [1] is “Phenotype: Inactive; Curve_Description: None”; in experiment [2] (read-out: AC50), 20.6 µM.

With `COc1ccc(-c2ccc3c(NC(=O)C4CC4)n[nH]c3n2)cc1`, the AC50 result is “Phenotype: Inactive; Curve_Description: None” in experiment [1] and 2.31 µM in experiment [2] (read-out: AC50).

Regarding `O=C(Nc1n[nH]c2cc(-c3ccc(F)cc3)ccc12)C1CC1`, the AC50 result was “Phenotype: Inactive; Curve_Description: None” in experiment [1] and 16.3 µM in experiment [2] (read-out: AC50).

On to `CCc1ccc(Oc2nccc(-c3c(-c4ccc(F)cc4)ncn3C3CCNCC3)n2)cc1`, for which the AC50 result in experiment [1] and in experiment [2] was “Phenotype: Inactive; Curve_Description: None” throughout.

With `CN1CCC(n2cnc(-c3ccc(F)cc3)c2-c2ccnc(N)n2)CC1`, the AC50 result in experiment [1] and in experiment [2] was “Phenotype: Inactive; Curve_Description: None” each time.

Regarding `CC1(C)CC(n2cnc(-c3ccc(F)cc3)c2-c2ccnc(N)n2)CC(C)(C)N1`, the values for the AC50 result in experiment [1] and in experiment [2] (read-out: AC50) were “Phenotype: Inactive; Curve_Description: None” and 41.1 µM, respectively.
